# Like-named read-outs stand apart in the source and are kept apart here.
# Experiments:
# A427 cells = assay: Cytotoxicity assay (resazurin) in A427 cells; type: cell-based; settings: read-out: Cell Viability IC50 A427
# Description: Cells were allowed to grow at 37° C. for 24 hr in 5% CO2 environment (culture conditions) in a Nuaire incubator (humidified). Serially diluted test compounds (100 μL) within the desired testing concentration ranges were added to the culture plate were further incubated in culture conditions for 72 hr and 96 hr for A427 and A549 respectively. The experiment was terminated at the designated incubation time by replacing the medium with 100 μL of 1 mM of resazurin (R7017; Sigma) prepared in respective culture medium, and the plates were further incubated in culture conditions for 4-6 hr. Fluorescence was recorded using a multimodal plate reader (Biotek Synergy Neo) at an excitation wavelength of 535 nm and emission wavelength of 590 nm to obtain relative fluorescence units. Data analysis was done by subtracting the background fluorescence (only medium blank) value from each reading and then normalizing with the vehicle control (DMSO treated cells) to obtain percent survival/proliferation. Percent survival was then subtracted by 100 to get the percent inhibition of proliferation which was used to calculate IC50 values.
# WEE1 kinase enzyme = WEE1 kinase enzyme (Homo sapiens (Human), UniProt P30291); assay: WEE1 IC50 determination, LanthaScreen Terbium Labeled TR-FRET kinase assay; type: biochemical; settings: WEE1 enzyme 1 nM, ATP 10 μM, 1 h
# Description: IC50 values of compounds against WEE1 kinase enzyme were determined by LanthaScreen™ Terbium Labeled TR-FRET assay. […] After 1 h, […] stop solution containing Terbium labeled antibody (4 nM) (#PV3529, Invitrogen, Life Technologies Grand Island, N.Y.) and EDTA (#E5134, Sigma, St-Louis, Mo.) (20 mM) in TR-FRET dilution buffer (#PV3574, Invitrogen, Life Technologies Grand Island, N.Y.) was added. Readings were taken in a Synergy Neo Plate reader (BioTek, Winooski) at single excitation of 340 nm and Dual emission at 495 nm and 520 nm respectively.
# The % activity of test samples was calculated as (Sample−Min)*100/(Max−Min). [Max: DMSO control, complete reaction with enzyme & DMSO and Min: No enzyme & DMSO].
# [1] = Homo sapiens, A-427, 72 h, A427, 72 hr
# Sequence of WEE1 kinase enzyme (P30291 whole entry): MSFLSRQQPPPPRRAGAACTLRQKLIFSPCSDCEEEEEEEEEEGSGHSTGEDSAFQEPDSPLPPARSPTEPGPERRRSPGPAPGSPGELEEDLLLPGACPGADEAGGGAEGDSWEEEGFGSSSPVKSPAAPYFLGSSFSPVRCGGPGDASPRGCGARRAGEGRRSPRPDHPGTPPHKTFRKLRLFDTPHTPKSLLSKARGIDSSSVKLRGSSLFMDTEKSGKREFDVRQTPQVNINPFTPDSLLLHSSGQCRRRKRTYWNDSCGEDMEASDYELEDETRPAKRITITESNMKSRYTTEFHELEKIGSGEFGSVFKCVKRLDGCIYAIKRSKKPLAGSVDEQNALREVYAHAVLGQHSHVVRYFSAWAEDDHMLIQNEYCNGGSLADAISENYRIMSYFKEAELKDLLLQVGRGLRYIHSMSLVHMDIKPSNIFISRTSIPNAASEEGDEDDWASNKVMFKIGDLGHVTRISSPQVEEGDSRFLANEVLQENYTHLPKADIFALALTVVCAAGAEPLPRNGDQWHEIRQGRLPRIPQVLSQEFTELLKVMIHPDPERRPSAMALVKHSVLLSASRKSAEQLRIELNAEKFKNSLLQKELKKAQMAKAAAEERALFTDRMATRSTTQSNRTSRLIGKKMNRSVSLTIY
Structure (SMILES),IC50 (A427 cells; [1]) [nM],IC50 (WEE1 kinase enzyme) [nM],"IC50 (A427 cells; Homo sapiens, A-427, A427, 72 hr) [nM]","IC50 (A427 cells; A427, 72 hr) [nM]"
CCn1c(=O)c2cnc(Nc3ccc4c(c3)CNCC4)nc2n1-c1cccc(OC)n1 [Example 1.18],7060,25,,
CCn1c(=O)c2cnc(Nc3ccc4c(c3)CCNC4)nc2n1-c1cccc(OC)n1 [Example 1.23],3210,40,,
CC(C)(O)c1cccc(-n2c3nc(Nc4ccc5c(c4)CCNC5)ncc3c(=O)n2C2CC2)n1 [Example 1.24],6030,23,,
CCn1c(=O)c2cnc(Nc3ccc4c(c3)CNCC4)nc2n1-c1cccc(C(=O)NC)n1 [Example 1.25],> 30000,99,,
CCn1c(=O)c2cnc(Nc3ccc4c(c3)CNCC4)nc2n1-c1cccc(NC)n1 [Example 1.27],4140,10,,
CCn1c(=O)c2cnc(Nc3ccc4c(c3)CNCC4)nc2n1-c1cccc(N2CCCC2=O)n1 [Example 1.31],1320,5,,
CCn1c(=O)c2cnc(Nc3ccc4c(c3)CNCC4)nc2n1-c1cccc(C(F)(F)F)n1 [Example 1.41],5120,44,,
CCn1c(=O)c2cnc(Nc3ccc4c(c3)CNCC4)nc2n1-c1cccc(NC(C)=O)n1 [Example 1.47],3020,5,,
CC(C)n1c(=O)c2cnc(Nc3ccc4c(c3)CCNC4)nc2n1-c1cccc(C(C)(C)O)n1 [Example 1.69],485,11,,
CCn1c(=O)c2cnc(Nc3ccc4c(c3)CNCC43CC3)nc2n1-c1cccc(C(C)(C)O)n1 [Example 1.70],640,15,,
CCn1c(=O)c2cnc(Nc3cccc4c3CCNC4)nc2n1-c1cccc(C(C)(C)O)n1 [Example 1.125],> 30000,> 5000,,
CCn1c(=O)c2cnc(Nc3ccc4c(c3)CNCC4)nc2n1-c1cccc(C(C)(C)C)n1 [Example 1.126],275,< 1,,
CCn1c(=O)c2cnc(Nc3cnc4c(c3)CNCC4)nc2n1-c1cccc(C(C)(C)O)n1 [Example 1.127],> 23000,58,,
CCn1c(=O)c2cnc(Nc3ccc4c(c3)CN(CCO)CC4)nc2n1-c1cccc(C(C)(C)O)n1 [Example 1.128],1550,6,,
CCn1c(=O)c2cnc(Nc3ccc4c(c3)CN(CC(=O)N(C)C)CC4)nc2n1-c1cccc(C(C)(C)O)n1 [Example 1.129],865,6,,
CCn1c(=O)c2cnc(Nc3ccc4c(c3)CNCC4)nc2n1-c1ccccn1 [Example 1.130],9070,18,,
CCn1c(=O)c2cnc(Nc3ccc4c(c3)CCNC4)nc2n1-c1cccc(C(C)(C)C)n1 [Example 1.131],285,0.6,,
CCn1c(=O)c2cnc(Nc3ccc4c(c3)CNC4)nc2n1-c1cccc(C(C)(C)O)n1 [Example 1.132],,4,1680,
CCn1c(=O)c2cnc(Nc3ccc4c(c3)CC(N(C)C)C4)nc2n1-c1cccc(C(C)(C)O)n1 (stereo not drawn) [Example 1.133],583,6,,
CCn1c(=O)c2cnc(Nc3ccc4c(c3)CNCC4)nc2n1-c1ccnc(C(C)(C)C)c1 [Example 1.134],820,9,,
CCn1c(=O)c2cnc(Nc3ccc4c(c3)CC(N(C)C)CC4)nc2n1-c1cccc(C(C)(C)O)n1 (stereo not drawn) [Example 1.135],440,20,,
CCn1c(=O)c2cnc(Nc3ccc4c(c3)CCNC4)nc2n1-c1ccnc(C(C)(C)C)c1 [Example 1.136],1090,7,,
CC(C)n1c(=O)c2cnc(Nc3ccc4c(c3)CNCC4)nc2n1-c1ccnc(C(C)(C)C)c1 [Example 1.137],415,4,,

Structure (SMILES),IC50 (A427 cells; [1]) [nM],IC50 (WEE1 kinase enzyme) [nM],"IC50 (A427 cells; Homo sapiens, A-427, A427, 72 hr) [nM]","IC50 (A427 cells; A427, 72 hr) [nM]"
CC(C)n1c(=O)c2cnc(Nc3ccc4c(c3)CNCC4)nc2n1-c1cccc(C(C)(C)F)n1 [Example 1.139],355,4,,
CCn1c(=O)c2cnc(Nc3cnc4c(c3)CNCC4)nc2n1-c1cccc(C(C)(C)C)n1 [Example 1.141],2970,24,,
CCn1c(=O)c2cnc(Nc3ccc4c(c3)CNC4)nc2n1-c1cccc(C(C)(C)C)n1 [Example 1.142],390,4,,
CC(C)n1c(=O)c2cnc(Nc3ccc4c(c3)CNCC4)nc2n1-c1cccc(C(C)(C)C)n1 [Example 1.144],260,0.6,,
CC(C)n1c(=O)c2cnc(Nc3ccc4c(c3)CCNC4)nc2n1-c1cccc(C(C)(C)C)n1 [Example 1.145],255,3,,
CC(C)(C)c1cccc(-n2c3nc(Nc4ccc5c(c4)CCNC5)ncc3c(=O)n2C2CC2)n1 [Example 1.147],,7,,370
CC(C)n1c(=O)c2cnc(Nc3ccc4c(c3)CNCC4)nc2n1-c1cccc(C2CC2)n1 [Example 1.148],1080,2,,
CC(C)n1c(=O)c2cnc(Nc3ccc4c(c3)CCNC4)nc2n1-c1cccc(C2CC2)n1 [Example 1.149],1130,3,,
CC(n1c(=O)c2cnc(Nc3ccc4c(c3)CNCC4)nc2n1-c1cccc(C(C)(C)C)n1)C(F)(F)F (stereo not drawn) [Example 1.150],3000,13,,
CC(C)(C)c1cccc(-n2c3nc(Nc4ccc5c(c4)CNCC5)ncc3c(=O)n2C(C)(C)C)n1 [Example 1.151],3380,2540,,
CC(C)(C)c1cccc(-n2c3nc(Nc4ccc5c(c4)CNCC5)ncc3c(=O)n2CC(F)(F)F)n1 [Example 1.152],1020,< 1,,
CC(CO)n1c(=O)c2cnc(Nc3ccc4c(c3)CNCC4)nc2n1-c1cccc(C(C)(C)C)n1 (stereo not drawn) [Example 1.153],2540,16,,
COCCn1c(=O)c2cnc(Nc3ccc4c(c3)CNCC4)nc2n1-c1cccc(C(C)(C)C)n1 [Example 1.154],2370,8,,
CC(C)n1c(=O)c2cnc(Nc3ccc4c(c3)CCNC4)nc2n1-c1cccc(C(C)(C)C)c1 [Example 1.155],1980,2,,
CC(C)n1c(=O)c2cnc(Nc3ccc4c(c3)CNCC4)nc2n1-c1cccc(C(C)(C)C)c1 [Example 1.156],1770,1,,
C=CCn1c(=O)c2cnc(Nc3ccc4c(c3)CCNC4)nc2n1-c1ccnc(C(C)(C)C)c1 [Example 1.157],460,5,,
C=CCn1c(=O)c2cnc(Nc3ccc4c(c3)CNCC4)nc2n1-c1ccnc(C(C)(C)C)c1 [Example 1.158],200,4,,
CC(C)(C)c1cc(-n2c3nc(Nc4ccc5c(c4)CCNC5)ncc3c(=O)n2C2CC2)ccn1 [Example 1.159],3320,30,,
CC(C)n1c(=O)c2cnc(Nc3ccc4c(c3)CCNC4)nc2n1-c1ccn(C(C)(C)C)n1 [Example 2.454],,48,,
CC(C)(F)c1cc(-n2c3nc(Nc4ccc5c(c4)CCNC5(C)C)ncc3c(=O)n2C2CC2)ccn1 [Example 2.555],,153,,
CC(C)(C)c1cc(-n2c3nc(Nc4ccc5c(c4)CNCC5(C)C)ncc3c(=O)n2C2CC2)ccn1 [Example 2.600],,25,,
CC(C)n1c(=O)c2cnc(Nc3ccc4c(c3)CCNC4)cc2n1-c1ccnc(C(C)(C)C)c1 [Example 2.732],,179,,
CC(C)n1c(=O)c2cnc(Nc3ccc4c(c3)CNCC4)cc2n1-c1ccnc(C(C)(C)C)c1 [Example 2.744],10400,,,

# Source: US11299493B2, “Heterocyclic compounds and uses thereof” (NUVATION BIO INC., priority 2017, dated 2022)
